{
  "source": "patent US6777434B2",
  "about": "“Thiazolidine-4-one derivative, method for preparing the same, and pharmaceutical composition containing the same” (CJ Corp., priority 2002, dated 2004)",
  "key": {"[1]": {"target": "T1, COX-2 (Mus musculus, UniProt Q05769)", "T1 construct": "host or cells: RAW 264.7 cells, pre-treated with aspirin, then induced with interferon and LPS", "T1 sequence (Q05769 18-604)": "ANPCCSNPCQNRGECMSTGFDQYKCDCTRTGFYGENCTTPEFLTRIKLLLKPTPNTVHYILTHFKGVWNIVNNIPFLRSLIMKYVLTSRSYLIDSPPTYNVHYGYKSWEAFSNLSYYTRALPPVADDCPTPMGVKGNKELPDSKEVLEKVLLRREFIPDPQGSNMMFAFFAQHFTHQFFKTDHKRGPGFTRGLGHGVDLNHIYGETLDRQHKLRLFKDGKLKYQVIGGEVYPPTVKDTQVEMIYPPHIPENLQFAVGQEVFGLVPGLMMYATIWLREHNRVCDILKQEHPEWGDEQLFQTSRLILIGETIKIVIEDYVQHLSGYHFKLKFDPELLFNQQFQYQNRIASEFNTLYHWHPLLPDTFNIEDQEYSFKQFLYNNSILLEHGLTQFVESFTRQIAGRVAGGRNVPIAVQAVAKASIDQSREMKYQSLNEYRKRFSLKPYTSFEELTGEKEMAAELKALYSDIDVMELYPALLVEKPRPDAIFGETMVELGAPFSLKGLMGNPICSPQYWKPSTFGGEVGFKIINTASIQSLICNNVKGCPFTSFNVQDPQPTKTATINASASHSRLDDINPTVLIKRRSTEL", "experiment": "Assay for the COX-2 inhibitory activity using RAW 264.7 cell line (PGE2 inhibition)", "type": "cell-based", "details": "for COX-2 inhibitory activity compared with the reference: 10 nM, RAW 264.7, comparison with Valdecoxib; for inhibition (%) ratio of COX-2 to COX-1 compared with the reference Valdecoxib: COX-2 at 10 nM (RAW 264.7) versus COX-1 at 1 μM (U-937); for inhibition at 0.01 µM: RAW264.7, 10 nM test compound, RAW 264.7 cells, interferon and LPS, 18 hours, PGE2 by EIA, read-out: Cyclooxygenase (COX) Inhibition (%) COX-2 (10 nM)", "method": "Each well was treated with 250 μM of aspirin and incubated at 37° C. for 2 hours. After the culture media were replaced with new culture media, the new culture media were treated with a test compound (10 nM) and incubated for 30 minutes. Then, each well was treated with interferon ? (100 units/ml) and lipopolysaccharide (LPS, 100 ng/ml) and incubated for 18 hours. The culture media were transferred to another test tubes. The concentration of PGE2 was quantified by means of the EIA kit (Cayman Chemicals):\n(§1) The percentages of the COX inhibition were calculated according to the following equation:\n(§2) % Inhibition=(concentration of PGE2 in test compound-untreated sample−concentration of PGE2 in test compound-treated sample)/(concentration of PGE2 in test compound-untreated sample)×100"}, "[2]": {"target": "T2, COX-1 (Homo sapiens, UniProt P23219)", "T2 construct": "host or cells: U-937 human lymphoma cells", "T2 sequence (P23219 24-599)": "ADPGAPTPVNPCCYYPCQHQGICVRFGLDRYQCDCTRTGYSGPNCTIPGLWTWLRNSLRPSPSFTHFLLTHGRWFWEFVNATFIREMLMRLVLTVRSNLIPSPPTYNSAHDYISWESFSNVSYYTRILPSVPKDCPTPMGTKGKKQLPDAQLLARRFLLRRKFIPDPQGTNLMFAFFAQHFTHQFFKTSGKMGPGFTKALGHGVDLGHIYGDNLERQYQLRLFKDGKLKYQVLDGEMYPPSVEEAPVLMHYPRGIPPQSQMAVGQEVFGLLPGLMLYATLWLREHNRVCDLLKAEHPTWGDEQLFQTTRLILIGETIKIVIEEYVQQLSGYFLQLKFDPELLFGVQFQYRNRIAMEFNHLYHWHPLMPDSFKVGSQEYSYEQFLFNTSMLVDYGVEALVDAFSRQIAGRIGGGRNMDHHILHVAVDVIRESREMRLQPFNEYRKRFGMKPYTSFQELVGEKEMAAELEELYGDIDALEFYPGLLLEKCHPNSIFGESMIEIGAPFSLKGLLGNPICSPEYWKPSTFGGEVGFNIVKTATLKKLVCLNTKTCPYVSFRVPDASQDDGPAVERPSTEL", "experiment": "Assay for the COX-1 inhibitory activity using U-937 (PGE2 inhibition)", "type": "cell-based", "details": "1 μM test compound; U-937 human lymphoma cells; PGE2 after arachidonic acid; read-out: Cyclooxygenase (COX) Inhibition (%) COX-1 (1 μM)", "method": "The collected cells were diluted with HBSS (×1, Hank's balanced salt solution) to a concentration of 1×10^6 cells/ml. 1 ml of the dilute cell solution was placed into each well of 12-well plates. 5 μl of 1 μM solution of a test compound in DMSO and 5 μl of DMSO as a control were added to the wells. The wells were incubated in CO2 incubator at 37° C. for 15 minutes. Separately, 10 mM stock solution of arachidonic acid in ethanol was diluted ten times in ethanol to prepare 1 mM solution of arachidonic acid. Arachidonic acid acts as a substrate. 10 μl of the 1 mM solution of arachidonic acid was added to each well and incubated at CO2 incubator at 37° C. for 30 minutes. The cell solution of each well was placed in a centrifuge test tube and centrifuged at 10,000 rpm at 4° C. for 5 minutes. The concentration of PGE2 in the collected cells and the supernatant was quantified by means of a monoclonal kit (Cayman Chemicals). The percentages of PGE2 inhibition in a group of the test compound-treated cells in relation to a group of the DMSO-treated cells were calculated. Based on the calculated values, the COX-1 inhibitory activities were evaluated.\nas §1, §2"}},
  "data": [
    {"smiles": "Cc1ccc(N2C(=O)CSC2c2ccc(S(C)(=O)=O)cc2)cc1F", "note": "(stereo not drawn) [Example 2, 3-(3-fluoro-4-methylphenyl)-2-(4-methanesulfonylphenyl)thiazolidine-4-one]", "values": [
      {"measurement": "COX-2 inhibitory activity compared with the reference", "setting": "[1]", "value": "significantly higher than the reference"},
      {"measurement": "inhibition (%) ratio of COX-2 to COX-1 compared with the reference Valdecoxib", "setting": "[1]", "value": "significantly higher than that in the reference"},
      {"measurement": "inhibition at 0.01 µM", "setting": "[1]", "value": 16, "unit": "%"},
      {"measurement": "inhibition at 1 µM", "setting": "[2]", "value": 29.2, "unit": "%"}
    ]},
    {"smiles": "CS(=O)(=O)c1ccc(C2SCC(=O)N2c2ccccc2)cc1", "note": "(stereo not drawn) [Example 4, 2-(4-methanesulfonylphenyl)-3-phenylthiazolidine-4-one]", "values": [
      {"measurement": "COX-2 inhibitory activity compared with the reference", "setting": "[1]", "value": "significantly higher than the reference"},
      {"measurement": "inhibition (%) ratio of COX-2 to COX-1 compared with the reference Valdecoxib", "setting": "[1]", "value": "significantly higher than that in the reference"},
      {"measurement": "inhibition at 0.01 µM", "setting": "[1]", "value": 16, "unit": "%"},
      {"measurement": "inhibition at 1 µM", "setting": "[2]", "value": 26, "unit": "%"}
    ]},
    {"smiles": "CS(=O)(=O)c1ccc(C2SCC(=O)N2c2ccc(C#N)cc2)cc1", "note": "(stereo not drawn) [Example 5, 3-(4-cyanophenyl)-2-(4-methanesulfonylphenyl)thiazolidine-4-one]", "values": [
      {"measurement": "inhibition (%) ratio of COX-2 to COX-1 compared with the reference Valdecoxib", "setting": "[1]", "value": "significantly higher than that in the reference"},
      {"measurement": "inhibition at 0.01 µM", "setting": "[1]", "value": 6.54, "unit": "%"},
      {"measurement": "inhibition at 1 µM", "setting": "[2]", "value": 10.1, "unit": "%"}
    ]},
    {"smiles": "CS(=O)(=O)c1ccc(C2SCC(=O)N2c2cc(F)cc(F)c2)cc1", "note": "(stereo not drawn) [Example 6, 3-(3,5-difluorophenyl)-2-(4-methanesulfonylphenyl)thiazolidine-4-one]", "values": [
      {"measurement": "COX-2 inhibitory activity compared with the reference", "setting": "[1]", "value": "significantly higher than the reference"},
      {"measurement": "inhibition (%) ratio of COX-2 to COX-1 compared with the reference Valdecoxib", "setting": "[1]", "value": "significantly higher than that in the reference"},
      {"measurement": "inhibition at 0.01 µM", "setting": "[1]", "value": 12.1, "unit": "%"},
      {"measurement": "inhibition at 1 µM", "setting": "[2]", "value": 38, "unit": "%"}
    ]}
  ]
}
